{"source": "patent US6090780A", "about": "(Chandon Prasad, priority 1999, dated 2000)", "type_in_all_cases": "in vivo", "key": {"C57BL mice [1]": {"tested_on": "C57BL mice", "assay": "Voluntary alcohol consumption in alcohol experienced mice (two-bottle choice)", "conditions": "for ETHANOL PREFERENCE (%): 7 days", "method": "Forty adult male C57BL mice were obtained from Jackson Laboratories and housed individually in light controlled rooms for a period of at least ten days prior to beginning the experiment with free access to Purina Chow and water. The lights were cycled on and off every twelve hour period. The mice were divided into four groups of ten. Each room was fitted with two 250 ml bottles having drip proof drinking spouts on both sides of a food bin containing Purina Chow. Both bottles contained 6% (V/V) ethanol in water and were the only source of fluid available. Mice were allowed to drink for seven days. On the eighth day, one bottle containing ethanol in water was removed and replaced with a 250 ml bottle containing water. […] The bottles were frequently exchanged to discourage positional preference. Fluid intake from each bottle was recorded after an additional 7 days. % Ethanol preference was calculated for each group."}, "Sprague-Dawley rats": {"tested_on": "Sprague-Dawley rats", "assay": "Effect of intraperitoneal and oral administration of CHP on food intake", "conditions": "for food intake, mean ± SEM, n = 6: 7 h after 21 h fast; for effect on food consumption: up to 50 mg/Kg of body weight", "method": "Thirty-six outbred adult male Sprague-Dawley rats, certified virus free, obtained from Hilltop Laboratories, New York, N.Y. were housed in a temperature and light controlled room for a period of at least seven days after arrival. Sprague-Dawley rats are white albino outbred rats. The temperature of the room was maintained at about 20-21° C. The lights in the room were cycled between on and off every twelve hours. The rats were allowed free access to Purina Chow food and water prior to beginning the experiment. For the experiment rats were divided into six groups of six rats each. […] The amount of CHP in each dose was based on the body weight of the individual rat. Rats were fasted for about 21 hours from food but not water. Oral dosages of CHP were administered using a gavage tube according to each rat group. The rats were then given access to Purina Chow and water for the next seven hours. Food intake during the seven hours was measured in grams per rat and averaged for each group. […] At the end of this period, the experiment was repeated using intraperitoneal administration."}, "C57BL mice [2]": {"tested_on": "C57BL mice", "assay": "Voluntary alcohol consumption in alcohol naive mice (two-bottle choice)", "conditions": "for % ETHANOL PREFERENCE (mean ± SEM): 7 days", "method": "Forty adult male C57BL mice were obtained from Jackson Laboratories and housed individually in light controlled rooms for a period of at least ten days after arrival with free access to Purina Chow and water. The lights were cycled on and off every twelve hour period. Mice were divided into four groups of ten. Each room was fitted with two 250 ml bottles having drip proof drinking spouts on both sides of a food bin containing Purina Chow. One bottle contained 6% (V/V) ethanol in water whereas the other bottle contained water. […] The two bottles were frequently exchanged with each other to minimize positional preference. Fluid intake from each bottle was recorded after 7 days.\nEthanol preference was calculated as ethanol intake/(ethanol intake+water intake)×100."}, "[3]": {"conditions": "CHP 1 μg/ml fluid in each bottle"}, "[4]": {"conditions": "CHP 5 μg/ml fluid in each bottle"}, "[5]": {"conditions": "CHP 10 μg/ml fluid in each bottle"}}, "data": [{"substance": "Histidyl-proline diketopiperazine [CHP]", "values": [{"measurement": "alcohol preference after CHP administration", "setting": "C57BL mice [1]; ANOVA: F=3.88, p=0.0195", "value": "dose dependence decrease"}, {"measurement": "ETHANOL PREFERENCE (%)", "setting": "C57BL mice [1]; [3]", "value": 58, "unit": "%"}, {"measurement": "ETHANOL PREFERENCE (%)", "setting": "C57BL mice [1]; [4]", "value": 54, "unit": "%"}, {"measurement": "ETHANOL PREFERENCE (%)", "setting": "C57BL mice [1]; [5]", "value": 40, "unit": "%"}, {"measurement": "food intake, mean ± SEM, n = 6", "setting": "Sprague-Dawley rats; intraperitoneal, 1 mg/kg of body weight", "value": "17.6 ± 3.6", "unit": "g/rat"}, {"measurement": "food intake, mean ± SEM, n = 6", "setting": "Sprague-Dawley rats; intraperitoneal, 5 mg/kg of body weight", "value": "14.2 ± 0.7", "unit": "g/rat"}, {"measurement": "food intake, mean ± SEM, n = 6", "setting": "Sprague-Dawley rats; intraperitoneal, 10 mg/kg of body weight", "value": "14.1 ± 2.9", "unit": "g/rat"}, {"measurement": "food intake, mean ± SEM, n = 6", "setting": "Sprague-Dawley rats; intraperitoneal, 20 mg/kg of body weight", "value": "14.4 ± 1.0", "unit": "g/rat"}, {"measurement": "food intake, mean ± SEM, n = 6", "setting": "Sprague-Dawley rats; intraperitoneal, 50 mg/kg of body weight", "value": "14.7 ± 1.2", "unit": "g/rat"}, {"measurement": "effect on food consumption", "setting": "Sprague-Dawley rats; intraperitoneal, ANOVA F=1.86, p=0.13", "value": "no significant effect"}, {"measurement": "food intake, mean ± SEM, n = 6", "setting": "Sprague-Dawley rats; oral, 1 mg/kg of body weight", "value": "14.3 ± 2.2", "unit": "g/rat"}, {"measurement": "food intake, mean ± SEM, n = 6", "setting": "Sprague-Dawley rats; oral, 5 mg/kg of body weight", "value": "14.7 ± 1.2", "unit": "g/rat"}, {"measurement": "food intake, mean ± SEM, n = 6", "setting": "Sprague-Dawley rats; oral, 10 mg/kg of body weight", "value": "13.1 ± 2.1", "unit": "g/rat"}, {"measurement": "food intake, mean ± SEM, n = 6", "setting": "Sprague-Dawley rats; oral, 20 mg/kg of body weight", "value": "15.1 ± 2.3", "unit": "g/rat"}, {"measurement": "food intake, mean ± SEM, n = 6", "setting": "Sprague-Dawley rats; oral, 50 mg/kg of body weight", "value": "15.7 ± 1.7", "unit": "g/rat"}, {"measurement": "effect on food consumption", "setting": "Sprague-Dawley rats; oral, ANOVA F=0.92", "value": "no significant effect"}, {"measurement": "effect on average daily fluid intake", "setting": "C57BL mice [2]; ANOVA: F=0.09, p=0.96", "value": "did not effect"}, {"measurement": "alcohol preference after CHP administration", "setting": "C57BL mice [2]; ANOVA: F=3.73, p=0.019", "value": "dose dependence decrease"}, {"measurement": "AVERAGE FLUID INTAKE", "setting": "C57BL mice [2]; [3]", "value": 2.9, "unit": "mL/day"}, {"measurement": "% ETHANOL PREFERENCE (mean ± SEM)", "setting": "C57BL mice [2]; [3]", "value": "29 ± 6", "unit": "%"}, {"measurement": "AVERAGE FLUID INTAKE", "setting": "C57BL mice [2]; [4]", "value": 2.8, "unit": "mL/day"}, {"measurement": "% ETHANOL PREFERENCE (mean ± SEM)", "setting": "C57BL mice [2]; [4]", "value": "23 ± 6", "unit": "%"}, {"measurement": "AVERAGE FLUID INTAKE", "setting": "C57BL mice [2]; [5]", "value": 2.7, "unit": "mL/day"}, {"measurement": "% ETHANOL PREFERENCE (mean ± SEM)", "setting": "C57BL mice [2]; [5]", "value": 15, "unit": "%"}]}]}
